Assays:
Endothelin-1 receptor [1] = target: T1, Endothelin-1 receptor (Rattus norvegicus, UniProt P26684); test: Inhibition of specific binding of [125I]ET1 (endothelin 1) to the endothelin A receptor of rat aorta membranes; assay type: cell membranes, Membrane
T1 sequence (P26684 whole entry): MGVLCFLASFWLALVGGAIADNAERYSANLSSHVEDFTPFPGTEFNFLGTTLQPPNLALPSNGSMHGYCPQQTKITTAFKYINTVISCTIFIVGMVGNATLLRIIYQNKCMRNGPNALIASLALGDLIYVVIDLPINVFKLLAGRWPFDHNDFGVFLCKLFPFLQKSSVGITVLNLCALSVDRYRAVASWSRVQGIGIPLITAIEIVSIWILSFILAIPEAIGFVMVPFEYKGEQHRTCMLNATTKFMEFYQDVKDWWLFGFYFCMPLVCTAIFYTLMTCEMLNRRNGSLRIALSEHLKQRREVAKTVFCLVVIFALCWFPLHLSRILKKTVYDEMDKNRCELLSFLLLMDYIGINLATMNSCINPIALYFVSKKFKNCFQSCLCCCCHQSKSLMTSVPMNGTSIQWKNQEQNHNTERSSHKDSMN

[2] = target: T2, Endothelin receptor type B (Sus scrofa, UniProt P35463); test: Inhibition of specific binding of [125I]ET1 (endothelin 1) to endothelin B receptor of porcine kidney membranes
T2 sequence (P35463 whole entry): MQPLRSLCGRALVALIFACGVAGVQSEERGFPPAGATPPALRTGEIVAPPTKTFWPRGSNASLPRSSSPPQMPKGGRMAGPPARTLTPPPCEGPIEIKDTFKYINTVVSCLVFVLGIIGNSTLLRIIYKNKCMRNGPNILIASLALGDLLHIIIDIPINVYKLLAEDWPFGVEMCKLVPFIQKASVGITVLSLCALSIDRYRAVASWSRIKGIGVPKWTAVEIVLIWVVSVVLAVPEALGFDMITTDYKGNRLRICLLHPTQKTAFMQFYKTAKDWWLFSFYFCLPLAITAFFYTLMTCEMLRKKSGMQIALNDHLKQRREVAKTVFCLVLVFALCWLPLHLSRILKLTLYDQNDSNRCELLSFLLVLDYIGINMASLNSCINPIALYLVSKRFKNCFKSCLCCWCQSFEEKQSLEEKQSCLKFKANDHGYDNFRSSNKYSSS

Endothelin-1 receptor [3] = target: T1, Endothelin-1 receptor; test: Compound was evaluated for the antagonism at the Endothelin A receptor (G-protein coupled endothelin A); assay type: functional; details: read-out: pA2 (converted)
[4] = target: T3, Endothelin receptor type B (Homo sapiens, UniProt P24530); test: Compound was evaluated for the antagonism at the Endothelin B receptor in isolated rabbit jugularis vein; assay type: functional, Oryctolagus cuniculus; details: target entry is the homologue from another species; read-out: pA2 (converted)
T3 sequence (P24530 whole entry): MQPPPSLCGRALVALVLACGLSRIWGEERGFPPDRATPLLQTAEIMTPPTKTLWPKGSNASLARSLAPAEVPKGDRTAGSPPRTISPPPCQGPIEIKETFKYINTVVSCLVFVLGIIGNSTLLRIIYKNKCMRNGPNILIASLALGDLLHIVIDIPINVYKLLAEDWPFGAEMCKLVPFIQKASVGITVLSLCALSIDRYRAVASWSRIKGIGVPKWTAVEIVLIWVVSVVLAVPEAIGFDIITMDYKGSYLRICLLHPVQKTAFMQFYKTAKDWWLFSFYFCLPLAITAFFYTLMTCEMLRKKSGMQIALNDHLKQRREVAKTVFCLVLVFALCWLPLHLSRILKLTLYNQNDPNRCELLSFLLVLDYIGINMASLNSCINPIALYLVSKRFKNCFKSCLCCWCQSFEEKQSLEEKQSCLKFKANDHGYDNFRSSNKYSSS

Endothelin-1 receptor [5] = target: T1, Endothelin-1 receptor; test: Compound was evaluated for the antagonism at the Endothelin A receptor in isolated rat aortic rings; assay type: functional; details: read-out: pA2 (converted)

## Cc1ccc(=O)n(C(C(=O)NS(=O)(=O)c2ccccc2)c2ccc3c(c2)OCO3)n1 (stereo not given)
Endothelin-1 receptor [1]
  IC50: 0.23 µM
[2]
  IC50: > 100 µM

## Cc1ccc(=O)n(C(C(=O)NS(=O)(=O)c2ccc(C(C)C)cc2)c2ccc3c(c2)OCO3)n1 (stereo not given)
Endothelin-1 receptor [1]
  IC50: 0.034 µM
Endothelin-1 receptor [3]
  Kb: 0.631 µM
[2]
  IC50: 2.9 µM

## Cc1cc(C)c(=O)n(C(C(=O)NS(=O)(=O)c2ccc(C(C)(C)C)cc2)c2ccc3c(c2)OCO3)n1 (single isomer, unassigned; form 2)
Endothelin-1 receptor [1]
  IC50: 0.018 µM
[2]
  IC50: 0.55 µM

## COc1ccc(S(=O)(=O)NC(=O)C(c2ccc3c(c2)OCO3)n2nc(C)ccc2=O)cc1 (stereo not given)
Endothelin-1 receptor [1]
  IC50: 0.16 µM
[2]
  IC50: > 100 µM

## CC(C)c1ccc(S(=O)(=O)NC(=O)C(c2ccc3c(c2)OCO3)n2nc3c(cc2=O)CCC3)cc1 (stereo not given)
Endothelin-1 receptor [1]
  IC50: 2.5 µM
[2]
  IC50: 1.7 µM

## CC(C)c1ccc(S(=O)(=O)NC(=O)C(c2ccc3c(c2)OCO3)N2N=C(c3ccc(Cl)cc3)CCC2=O)cc1 (stereo not given)
Endothelin-1 receptor [1]
  IC50: 2.7 µM
[2]
  IC50: 6.4 µM

## O=C(O)C(c1ccc2c(c1)OCO2)N1N=C(c2ccccc2)CCC1=O (stereo not given)
Endothelin-1 receptor [1]
  IC50: > 100 µM
[2]
  IC50: > 100 µM

## COc1ccc(OC)c(C2=NN(C(C(=O)NS(=O)(=O)c3ccc(C(C)C)cc3)c3ccc4c(c3)OCO4)C(=O)CC2)c1 (stereo not given)
Endothelin-1 receptor [1]
  IC50: > 100 µM
[2]
  IC50: > 100 µM

## Cc1ccc(=O)n(C(C(=O)NS(=O)(=O)c2ccc(Br)cc2)c2ccc3c(c2)OCO3)n1 (stereo not given)
Endothelin-1 receptor [1]
  IC50: 0.23 µM
[2]
  IC50: > 100 µM

## CC(C)c1ccc(S(=O)(=O)NC(=O)C(c2ccc3c(c2)OCO3)N2N=C(c3ccccc3)CCC2=O)cc1 (stereo not given)
Endothelin-1 receptor [1]
  IC50: 2.6 µM
[2]
  IC50: > 100 µM

## Cc1ccc(=O)n(C(C(=O)NS(=O)(=O)c2ccc(C(C)(C)C)cc2)c2ccc3c(c2)OCO3)n1 (stereo not given)
Endothelin-1 receptor [1]
  IC50: 0.032 µM
[2]
  IC50: 2 µM

## Cc1cc(C)c(=O)n(C(C(=O)NS(=O)(=O)c2ccc(C(C)(C)C)cc2)c2ccc3c(c2)OCO3)n1 (stereo in doubt; 2q)
Endothelin-1 receptor [1]
  IC50: 0.02 µM
[2]
  IC50: 1.2 µM

## CCCc1ccc(=O)n(C(C(=O)NS(=O)(=O)c2ccc(C(C)C)cc2)c2ccc3c(c2)OCO3)n1 (stereo not given)
Endothelin-1 receptor [1]
  IC50: 0.64 µM
[2]
  IC50: 8.4 µM

## COc1ccc(C2=NN(C(C(=O)NS(=O)(=O)c3ccc(C(C)C)cc3)c3ccc4c(c3)OCO4)C(=O)CC2)c(OC)c1 (stereo not given)
Endothelin-1 receptor [1]
  IC50: > 100 µM
[2]
  IC50: > 100 µM

## CC(C)c1ccc(S(=O)(=O)NC(=O)C(c2ccc3c(c2)OCO3)n2nc(C(C)(C)C)ccc2=O)cc1 (stereo not given)
Endothelin-1 receptor [1]
  IC50: 4 µM
[2]
  IC50: > 100 µM

## CC(C)c1ccc(S(=O)(=O)NC(=O)C(c2ccc3c(c2)OCO3)n2nc(C3CC3)ccc2=O)cc1 (stereo not given)
Endothelin-1 receptor [1]
  IC50: 0.26 µM
[2]
  IC50: 2.6 µM

## COc1ccc(C2=NN(C(C(=O)NS(=O)(=O)c3ccc(C(C)C)cc3)c3ccc4c(c3)OCO4)C(=O)CC2)cc1 (stereo not given)
Endothelin-1 receptor [1]
  IC50: 2.9 µM
[2]
  IC50: 4.2 µM

## Cc1cc(=O)n(C(C(=O)NS(=O)(=O)c2ccc(C(C)C)cc2)c2ccc3c(c2)OCO3)nc1C (stereo not given)
Endothelin-1 receptor [1]
  IC50: 0.34 µM
[2]
  IC50: 5.2 µM

## Cc1ccc(=O)n(C(C(=O)NS(=O)(=O)c2ccc(-c3ccccc3)cc2)c2ccc3c(c2)OCO3)n1 (stereo not given)
Endothelin-1 receptor [1]
  IC50: 0.24 µM
[2]
  IC50: 2.4 µM

## COc1ccc(-c2cc(C)c(=O)n(C(C(=O)NS(=O)(=O)c3ccc(C(C)C)cc3)c3ccc4c(c3)OCO4)n2)cc1 (stereo not given)
Endothelin-1 receptor [1]
  IC50: 4 µM
[2]
  IC50: 7.7 µM

## Cc1cc(C)c(=O)n(C(C(=O)NS(=O)(=O)c2ccc(C(C)(C)C)cc2)c2ccc3c(c2)OCO3)n1 (single isomer, unassigned; form 1)
Endothelin-1 receptor [1]
  IC50: 2.6 µM
[2]
  IC50: > 100 µM

## CCCc1cc(C(=O)O)ccc1OC(C(=O)NS(=O)(=O)c1ccc(C(C)C)cc1)c1ccc2c(c1)OCO2 (stereo not given)
Endothelin-1 receptor [1]
  IC50: 0.041 µM
Endothelin-1 receptor [3]
  Kb: 0.00316 µM
[2]
  IC50: 0.9 µM

## CCCc1cc(C)c(=O)n(C(C(=O)NS(=O)(=O)c2ccc(C(C)C)cc2)c2ccc3c(c2)OCO3)n1 (stereo not given)
Endothelin-1 receptor [1]
  IC50: 0.29 µM
[2]
  IC50: 4.5 µM

## CC(C)c1ccc(S(=O)(=O)NC(=O)C(c2ccc3c(c2)OCO3)N2N=C(c3cccs3)CCC2=O)cc1 (stereo not given)
Endothelin-1 receptor [1]
  IC50: 3.2 µM
[2]
  IC50: > 100 µM

## COc1ccc(-c2ccc(=O)n(C(C(=O)NS(=O)(=O)c3ccc(C(C)C)cc3)c3ccc4c(c3)OCO4)n2)cc1 (stereo not given)
Endothelin-1 receptor [1]
  IC50: 3.2 µM
[2]
  IC50: 5.7 µM

## COc1ccc(C2=NN(C(C(=O)NS(=O)(=O)c3ccc(C(C)C)cc3)c3ccc4c(c3)OCO4)C(=O)CC2)cc1OC (stereo not given)
Endothelin-1 receptor [1]
  IC50: 4.1 µM
[2]
  IC50: > 100 µM

## CCc1cc(C)nn(C(C(=O)NS(=O)(=O)c2ccc(C(C)C)cc2)c2ccc3c(c2)OCO3)c1=O (stereo not given)
Endothelin-1 receptor [1]
  IC50: 0.032 µM
[2]
  IC50: 2.6 µM

## Cc1cc(C)c(=O)n(C(C(=O)NS(=O)(=O)c2ccc(C(C)C)cc2)c2ccc3c(c2)OCO3)n1 (stereo not given)
[4]
  Kb: 1.58 µM
Endothelin-1 receptor [1]
  IC50: 0.029 µM
Endothelin-1 receptor [5]
  Kb: 1.26 µM
[2]
  IC50: 3.5 µM
